# According to patent US7998965B2, “Glutamate aggrecanase inhibitors” (Wyeth LLC, priority 2005, dated 2011):
# Like-named read-outs stand apart in the source and are kept apart here.
# How the values were obtained:
# recombinant human MMP-2 = target: T1, recombinant human MMP-2 (Homo sapiens, UniProt P08253); experiment: In vitro fluorescence assay of MMP-2 activity
# T1 sequence (P08253 110-660): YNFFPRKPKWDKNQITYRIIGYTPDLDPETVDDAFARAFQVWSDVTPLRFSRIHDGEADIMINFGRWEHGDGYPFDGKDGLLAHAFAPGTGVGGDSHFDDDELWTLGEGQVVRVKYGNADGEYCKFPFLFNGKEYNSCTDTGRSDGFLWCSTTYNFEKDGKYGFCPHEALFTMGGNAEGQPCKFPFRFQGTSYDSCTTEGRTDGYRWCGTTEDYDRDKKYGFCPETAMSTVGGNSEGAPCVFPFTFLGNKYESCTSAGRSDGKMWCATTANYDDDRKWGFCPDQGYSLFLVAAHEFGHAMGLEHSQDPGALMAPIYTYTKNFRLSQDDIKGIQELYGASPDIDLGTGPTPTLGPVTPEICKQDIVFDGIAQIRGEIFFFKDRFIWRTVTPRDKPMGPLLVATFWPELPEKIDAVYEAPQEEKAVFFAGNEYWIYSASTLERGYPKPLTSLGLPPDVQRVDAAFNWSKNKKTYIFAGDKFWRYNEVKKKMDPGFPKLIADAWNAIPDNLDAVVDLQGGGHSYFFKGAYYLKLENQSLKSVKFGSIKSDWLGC
# [1] = system: Aggrecanase-mediated aggrecan cleavage in human OA cartilage explants; experiment: Human osteoarthritic cartilage explant efficacy study (BC3 western analysis); assay type: cell-based; details: for EC50: 144 h, read-out: EC50 (inhibition of aggrecanase generated aggrecan fragments)
# Description: Human OA Cartilage Explant Culture: Discarded tissues from consented knee replacement patients were obtained from New England Baptist Hospital (Brookline, Mass.) in sterile phosphate buffered saline (PBS) after about 2-4 hrs post surgery. Cartilage slices were harvested from the knee specimens and washed several times in PBS. These cartilage slices were cut into appropriate pieces (6-8 mm) and rinsed in PBS and then in media and further cultured for additional days as cartilage explants. The medium consisted of Dulbecco's Modified Eagle's medium (DMEM, JRH Biosciences, Lenexa, Kans.), 50 μg/ml ascorbic acid (Wako, Osaka, Japan), 10 mM HEPES, pH 7.0 (Mediatech, Herndon, Va.), 2 mM L-glutamine (Mediatech), 100 U/ml antibiotic-antimycotic solution (Mediatech).
# Test compounds: The test compounds are described in Examples 8OO, 8NNNNNNN, and 8WWWWWWW. Stock solutions of the compounds were prepared at 1 mg/ml in DMSO, aliquoted and stored at −20° C. Working solutions of the compounds were made in DMSO and added to the culture for efficacy studies.
# Efficacy study: Cartilage explants were cultured for 2-3 days in DMEM medium in a 37° C. and 5% CO2 environment to equilibrate the tissue. Explants were weighed (˜250 mg) and placed in wells of a 24-well culture dish in 1 ml of medium and 3 replicates per treatment group. For the efficacy study, cartilage explants were cultured for 6 days in the presence or absence of various concentrations of the test compound. The media was replaced on day 3 and the experiment was terminated on day 6. Total aggrecan content of conditioned media was measured by a colorimetric assay with DMMB (Farndale, R W et al., Biochim Biophys Acta. 1986, 883, 173-177).
# Western analysis: Aggrecan fragments in conditioned medium were analyzed by western analysis using neoepitope antibody, BC-3 designed to recognize the Aggrecanase-generated N-terminal interglobular neoepitope ^374ARGS. Equal cartilage weight equivalent conditioned media from each replicate well per treatment group was pooled and digested with Chondroitinase ABC (Sigma, St Louis, Mo.), Keratinase I (Seikagaku America, Falmouth, Mass.) and Keratinase II (Seikagaku America, Falmouth, Mass.) for 2 h at 37° C. Samples were concentrated by YM-10 centrifugal filter device (Millipore Corp., Bedford, Mass.), lyophilized and reconstituted with equal volume of water. Samples were separated under reducing conditions on 4-12% gradient Tris-glycine gels (Invitrogen, Carlsbad, Calif.). Proteins from the gels were transferred to nitrocellulose membranes. Immunoblots were probed using Mab BC-3 (Abcam, Cambridge, Mass.). Incubation with primary and alkaline-phosphatase-conjugated secondary goat anti-mouse IgG (Promega Corp., Madison, Wis.) was performed overnight at 4° C. and at room temperature for 1 h, respectively. The immunoblots were incubated with NBT/BCIP substrate (Promega Corp., Madison, Wis.) at room temperature to achieve optimum color development. The aggrecan fragments containing the ARGS neoepitope were quantitated by densitometry analysis and the percentage inhibition of aggrecan degradation by test compounds was determined.
# [2] = target: T2, purified recombinant human Aggrecanase-2 (Ag2t-Phe628-Strep) (Homo sapiens, UniProt Q9UNA0); experiment: In vitro fluorescence screen for Aggrecanase-2 inhibitors; assay type: biochemical; details: Table 3; for IC50: read-out: Agg 2 IC50; for Ki: read-out: Ki Agg2
# T2 construct: the form used is denoted as Ag2t-Phe628-Strep (MW=41,737)
# T2 sequence (Q9UNA0 262-628): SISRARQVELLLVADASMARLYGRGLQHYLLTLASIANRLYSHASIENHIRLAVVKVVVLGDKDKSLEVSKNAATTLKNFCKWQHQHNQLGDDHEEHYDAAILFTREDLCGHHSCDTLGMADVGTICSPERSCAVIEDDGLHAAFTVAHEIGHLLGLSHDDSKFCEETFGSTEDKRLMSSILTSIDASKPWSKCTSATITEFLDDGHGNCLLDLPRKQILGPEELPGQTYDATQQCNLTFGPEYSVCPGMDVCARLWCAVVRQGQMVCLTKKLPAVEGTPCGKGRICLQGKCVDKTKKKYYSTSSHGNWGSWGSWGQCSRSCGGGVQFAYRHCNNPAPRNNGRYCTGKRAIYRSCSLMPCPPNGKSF
# MMP-12 = MMP-12 (Homo sapiens, UniProt P39900); experiment: MMP-12 of Table 3; assay type: biochemical; details: unit inferred
# [3] = target: T3, purified recombinant human Aggrecanase-1 (rAgg1) (Homo sapiens, UniProt O75173); experiment: In vitro fluorescence screen for Aggrecanase-1 inhibitors; assay type: biochemical; details: Table 3; for IC50: read-out: Agg1 IC50; for Ki: read-out: Ki Agg1
# T3 sequence (O75173 213-837): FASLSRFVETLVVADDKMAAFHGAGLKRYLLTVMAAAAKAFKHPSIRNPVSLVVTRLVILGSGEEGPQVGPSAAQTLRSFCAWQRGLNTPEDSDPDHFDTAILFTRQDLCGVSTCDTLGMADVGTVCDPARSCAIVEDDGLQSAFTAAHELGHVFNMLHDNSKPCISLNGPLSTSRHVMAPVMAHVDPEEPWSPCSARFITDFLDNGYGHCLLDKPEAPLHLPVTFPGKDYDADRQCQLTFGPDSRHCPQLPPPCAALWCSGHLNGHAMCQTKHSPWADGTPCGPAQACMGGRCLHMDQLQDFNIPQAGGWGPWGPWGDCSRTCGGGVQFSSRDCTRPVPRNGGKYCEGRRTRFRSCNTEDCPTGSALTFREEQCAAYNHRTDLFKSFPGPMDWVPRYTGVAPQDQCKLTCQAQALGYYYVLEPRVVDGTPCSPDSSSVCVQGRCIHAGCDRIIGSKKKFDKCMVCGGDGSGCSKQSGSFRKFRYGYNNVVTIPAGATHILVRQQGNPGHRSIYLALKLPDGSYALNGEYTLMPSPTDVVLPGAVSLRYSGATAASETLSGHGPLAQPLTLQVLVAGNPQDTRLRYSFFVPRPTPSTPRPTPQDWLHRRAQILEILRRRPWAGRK
# MMP-8 = MMP-8 (Homo sapiens, UniProt P22894); experiment: MMP-8 of Table 3; assay type: biochemical; details: unit inferred
# [4] = Homo sapiens, read-out: % inhibition (BC3 analysis)
# Chain of MMP-8 (P22894 101-467, species assumed): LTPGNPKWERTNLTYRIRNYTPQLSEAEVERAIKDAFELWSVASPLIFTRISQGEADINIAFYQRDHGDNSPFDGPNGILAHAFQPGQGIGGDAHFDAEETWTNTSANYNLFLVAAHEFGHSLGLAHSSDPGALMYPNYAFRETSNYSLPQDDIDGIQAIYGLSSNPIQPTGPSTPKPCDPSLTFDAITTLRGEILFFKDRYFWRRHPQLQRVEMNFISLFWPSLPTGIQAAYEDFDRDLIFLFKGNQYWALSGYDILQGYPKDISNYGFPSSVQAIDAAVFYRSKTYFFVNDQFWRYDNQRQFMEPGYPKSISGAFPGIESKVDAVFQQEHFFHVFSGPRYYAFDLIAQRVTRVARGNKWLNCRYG
# Chain of MMP-12 (P39900 106-470): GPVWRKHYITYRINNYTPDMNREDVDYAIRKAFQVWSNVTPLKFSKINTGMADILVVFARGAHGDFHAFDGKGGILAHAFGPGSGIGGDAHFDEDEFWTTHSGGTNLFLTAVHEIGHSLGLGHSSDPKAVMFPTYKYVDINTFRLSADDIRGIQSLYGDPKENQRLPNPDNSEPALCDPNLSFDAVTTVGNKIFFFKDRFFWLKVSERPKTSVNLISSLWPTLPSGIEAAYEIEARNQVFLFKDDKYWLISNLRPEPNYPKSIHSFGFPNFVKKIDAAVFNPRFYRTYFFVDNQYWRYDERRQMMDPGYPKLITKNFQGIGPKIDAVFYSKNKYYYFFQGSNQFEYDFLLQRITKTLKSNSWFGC
structure (smiles),measurement,setting,value
"CC(C)(Cc1ccc(F)cc1)NC(=O)[C@H](CCC(=O)O)NC(=O)c1ccc(-c2cccs2)cc1 [Example 8NNNNNNN, N-[2-(4-fluorophenyl)-1,1-dimethylethyl]-N^2-[4-(2-thienyl)benzoyl]-L-α-glutamine]",IC50,recombinant human MMP-2,2150 nM
same,EC50,"[1]; human OA cartilage explants, 6 days, BC3 analysis",< 0.04 µg/mL
same,inhibition at 0.04 µg/mL,"[1]; Homo sapiens, 0.04 ug/ml, average of 4 donors, read-out: % inhibition (BC3 analysis)",70.2%
same,inhibition at 0.08 µg/mL,"[1]; Homo sapiens, 0.08 ug/ml, average of 4 donors, read-out: % inhibition (BC3 analysis)",84.5%
same,inhibition at 0.15 µg/mL,"[1]; Homo sapiens, 0.15 ug/ml, average of 4 donors, read-out: % inhibition (BC3 analysis)",66.7%
same,inhibition at 0.3 µg/mL,"[1]; Homo sapiens, 0.3 ug/ml, average of 4 donors, read-out: % inhibition (BC3 analysis)",73.1%
same,inhibition at 0.6 µg/mL,"[1]; Homo sapiens, 0.6 ug/ml, average of 4 donors, read-out: % inhibition (BC3 analysis)",98.9%
same,inhibition at 1.25 µg/mL,"[1]; Homo sapiens, 1.25 ug/ml, average of 4 donors, read-out: % inhibition (BC3 analysis)",99.4%
same,inhibition at 2.5 µg/mL,"[1]; Homo sapiens, 2.5 ug/ml, average of 4 donors",98.7%
same,inhibition at 5 µg/mL,"[1]; Homo sapiens, 5 ug/ml, average of 4 donors",100%
same,inhibition at 10 µg/mL,"[1]; Homo sapiens, 10 ug/ml, average of 4 donors",101%
same,IC50,[2],< 30 nM
same,Ki,[2],37 nM
same,IC50,MMP-12,680 nM
same,IC50,[3],< 30 nM
same,Ki,[3],< 3 nM
same,IC50,MMP-8,1210 nM
"CC(C)(Cc1ccc(F)cc1)NC(=O)[C@H](CCC(=O)O)NC(=O)c1ccc(-c2ccc(Cl)s2)cc1 [Example 8WWWWWWW, N^2-[4-(5-chloro-2-thienyl)benzoyl]-N-[2-(4-fluorophenyl)-1,1-dimethylethyl]-L-α-glutamine]",IC50,recombinant human MMP-2,1080 nM
same,EC50,[1]; Homo sapiens,0.04 to 0.16 µg/mL
same,inhibition at 0.01 µg/mL,[1]; [4],2.85%
same,inhibition at 0.02 µg/mL,[1]; [4],46.4%
same,inhibition at 0.04 µg/mL,[1]; [4],23.5%
same,inhibition at 0.08 µg/mL,[1]; [4],76.9%
same,inhibition at 0.15 µg/mL,[1]; [4],88.5%
same,inhibition at 0.3 µg/mL,[1]; [4],95%
same,inhibition at 0.6 µg/mL,[1]; [4],98%
same,inhibition at 1.25 µg/mL,[1]; [4],100%
same,IC50,[2],50 nM
same,Ki,[2],42 nM
same,IC50,MMP-12,630 nM
same,IC50,[3],< 30 nM
same,Ki,[3],< 3 nM
same,IC50,MMP-8,370 nM
